{"source": "PubChem BioAssay AID1963981", "about": "(Molecular Pharmacology Branch, DTP, NCI, 2024);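 note: spheroids exposed to agents for seven days before the viability read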", "system": "354836-022-R-J1-PDC multicell spheroid viability", "assay": "Anticancer human tumor 354836-022-R-J1-PDC patient-derived head and neck squamous cell carcinoma cell line growth inhibition [PI3K]", "conditions": "for IC50: curve of first compound; for viability, T/C: stronger effect = lower value", "procedure,_shortened": "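Agents were dosed from a top concentration near clinical Cmax (otherwise 10 microM) in half-log decrements, alone or combined with PI3K inhibitors. The spheroids contain tumor cells plus endothelial (HUVEC) and MSC stroma; viability is measured.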", "key": {"[1]": {"conditions": "second compound 0.0316 µM, first compound 0.0316 µM"}, "[2]": {"conditions": "second compound 0.0316 µM, first compound 0.1 µM"}, "[3]": {"conditions": "second compound 0.0316 µM, first compound 0.316 µM"}, "[4]": {"conditions": "second compound 0.0316 µM, first compound 1 µM"}, "[5]": {"conditions": "second compound 0.0316 µM, first compound 3.16 µM"}, "[6]": {"conditions": "second compound 0.0316 µM, first compound 10 µM"}, "[7]": {"conditions": "second compound 0.1 µM, first compound 0.0316 µM"}, "[8]": {"conditions": "second compound 0.1 µM, first compound 0.1 µM"}, "[9]": {"conditions": "second compound 0.1 µM, first compound 0.316 µM"}, "[10]": {"conditions": "second compound 0.1 µM, first compound 1 µM"}, "[11]": {"conditions": "second compound 0.1 µM, first compound 3.16 µM"}, "[12]": {"conditions": "second compound 0.1 µM, first compound 10 µM"}, "[13]": {"conditions": "second compound 0.316 µM, first compound 0.0316 µM"}, "[14]": {"conditions": "second compound 0.316 µM, first compound 0.1 µM"}, "[15]": {"conditions": "second compound 0.316 µM, first compound 0.316 µM"}, "[16]": {"conditions": "second compound 0.316 µM, first compound 1 µM"}, "[17]": {"conditions": "second compound 0.316 µM, first compound 3.16 µM"}, "[18]": {"conditions": "second compound 0.316 µM, first compound 10 µM"}, "[19]": {"conditions": "second compound 1 µM, first compound 0.0316 µM"}, "[20]": {"conditions": "second compound 1 µM, first compound 0.1 µM"}, "[21]": {"conditions": "second compound 1 µM, first compound 0.316 µM"}, "[22]": {"conditions": "second compound 1 µM, first compound 1 µM"}, "[23]": {"conditions": "second compound 1 µM, first compound 3.16 µM"}, "[24]": {"conditions": "second compound 1 µM, first compound 10 µM"}, "[25]": {"conditions": "second compound 3.16 µM, first compound 0.0316 µM"}, "[26]": {"conditions": "second compound 3.16 µM, first compound 0.1 µM"}, "[27]": {"conditions": "second compound 3.16 µM, first compound 0.316 µM"}, "[28]": {"conditions": "second compound 3.16 µM, first compound 1 µM"}, "[29]": {"conditions": "second compound 3.16 µM, first compound 3.16 µM"}, "[30]": {"conditions": "second compound 3.16 µM, first compound 10 µM"}, "[31]": {"conditions": "second compound 10 µM, first compound 0.0316 µM"}, "[32]": {"conditions": "second compound 10 µM, first compound 0.1 µM"}, "[33]": {"conditions": "second compound 10 µM, first compound 0.316 µM"}, "[34]": {"conditions": "second compound 10 µM, first compound 1 µM"}, "[35]": {"conditions": "second compound 10 µM, first compound 3.16 µM"}, "[36]": {"conditions": "second compound 10 µM, first compound 10 µM"}}}
{"smiles": "C#Cc1c(F)ccc2cc(O)cc(-c3ncc4c(N5CC6CCC(C5)N6)nc(OCC56CCCN5CC(F)C6)nc4c3F)c12", "note": "(centres undefined) + Cc1nc(NC(=O)N2CCCC2C(N)=O)sc1-c1ccnc(C(C)(C)C(F)(F)F)c1", "values": [{"measurement": "IC50", "setting": "second compound 0.0316 µM", "result": "> 10000", "unit": "nM"}, {"measurement": "IC50", "setting": "second compound 0.1 µM", "result": "> 10000", "unit": "nM"}, {"measurement": "IC50", "setting": "second compound 0.316 µM", "result": "> 10000", "unit": "nM"}, {"measurement": "IC50", "setting": "second compound 1 µM", "result": "> 10000", "unit": "nM"}, {"measurement": "IC50", "setting": "second compound 3.16 µM", "result": "> 10000", "unit": "nM"}, {"measurement": "IC50", "setting": "second compound 10 µM", "result": "< 31.6", "unit": "nM"}, {"measurement": "viability, T/C", "setting": "[1]", "result": 95, "unit": "%"}, {"measurement": "viability, T/C", "setting": "[2]", "result": 99.3, "unit": "%"}, {"measurement": "viability, T/C", "setting": "[3]", "result": 103, "unit": "%"}, {"measurement": "viability, T/C", "setting": "[4]", "result": 95.4, "unit": "%"}, {"measurement": "viability, T/C", "setting": "[5]", "result": 106, "unit": "%"}, {"measurement": "viability, T/C", "setting": "[6]", "result": 93.9, "unit": "%"}, {"measurement": "viability, T/C", "setting": "[7]", "result": 98.5, "unit": "%"}, {"measurement": "viability, T/C", "setting": "[8]", "result": 101, "unit": "%"}, {"measurement": "viability, T/C", "setting": "[9]", "result": 98.4, "unit": "%"}, {"measurement": "viability, T/C", "setting": "[10]", "result": 87.2, "unit": "%"}, {"measurement": "viability, T/C", "setting": "[11]", "result": 96, "unit": "%"}, {"measurement": "viability, T/C", "setting": "[12]", "result": 93.6, "unit": "%"}, {"measurement": "viability, T/C", "setting": "[13]", "result": 76, "unit": "%"}, {"measurement": "viability, T/C", "setting": "[14]", "result": 83.9, "unit": "%"}, {"measurement": "viability, T/C", "setting": "[15]", "result": 91.3, "unit": "%"}, {"measurement": "viability, T/C", "setting": "[16]", "result": 94.1, "unit": "%"}, {"measurement": "viability, T/C", "setting": "[17]", "result": 83.8, "unit": "%"}, {"measurement": "viability, T/C", "setting": "[18]", "result": 85.3, "unit": "%"}, {"measurement": "viability, T/C", "setting": "[19]", "result": 75.9, "unit": "%"}, {"measurement": "viability, T/C", "setting": "[20]", "result": 90.5, "unit": "%"}, {"measurement": "viability, T/C", "setting": "[21]", "result": 77.8, "unit": "%"}, {"measurement": "viability, T/C", "setting": "[22]", "result": 76.2, "unit": "%"}, {"measurement": "viability, T/C", "setting": "[23]", "result": 92.7, "unit": "%"}, {"measurement": "viability, T/C", "setting": "[24]", "result": 62.2, "unit": "%"}, {"measurement": "viability, T/C", "setting": "[25]", "result": 55.6, "unit": "%"}, {"measurement": "viability, T/C", "setting": "[26]", "result": 60.7, "unit": "%"}, {"measurement": "viability, T/C", "setting": "[27]", "result": 57.3, "unit": "%"}, {"measurement": "viability, T/C", "setting": "[28]", "result": 63.4, "unit": "%"}, {"measurement": "viability, T/C", "setting": "[29]", "result": 52.6, "unit": "%"}, {"measurement": "viability, T/C", "setting": "[30]", "result": 55.7, "unit": "%"}, {"measurement": "viability, T/C", "setting": "[31]", "result": 34.2, "unit": "%"}, {"measurement": "viability, T/C", "setting": "[32]", "result": 32.7, "unit": "%"}, {"measurement": "viability, T/C", "setting": "[33]", "result": 35.6, "unit": "%"}, {"measurement": "viability, T/C", "setting": "[34]", "result": 36.3, "unit": "%"}, {"measurement": "viability, T/C", "setting": "[35]", "result": 36.6, "unit": "%"}, {"measurement": "viability, T/C", "setting": "[36]", "result": 26, "unit": "%"}]}
{"smiles": "CC1(C)CCC(Nc2ncc(C(F)(F)F)c(-c3c[nH]c4c(P(C)(C)=O)c(C#N)ccc34)n2)CN1", "note": "(centres undefined) + Cc1nc(NC(=O)N2CCCC2C(N)=O)sc1-c1ccnc(C(C)(C)C(F)(F)F)c1", "values": [{"measurement": "IC50", "setting": "second compound 0.0316 µM", "result": "< 31.6", "unit": "nM"}, {"measurement": "IC50", "setting": "second compound 0.1 µM", "result": "< 31.6", "unit": "nM"}, {"measurement": "IC50", "setting": "second compound 0.316 µM", "result": "< 31.6", "unit": "nM"}, {"measurement": "IC50", "setting": "second compound 1 µM", "result": "< 31.6", "unit": "nM"}, {"measurement": "IC50", "setting": "second compound 3.16 µM", "result": "< 31.6", "unit": "nM"}, {"measurement": "IC50", "setting": "second compound 10 µM", "result": "< 31.6", "unit": "nM"}, {"measurement": "viability, T/C", "setting": "[1]", "result": 20.2, "unit": "%"}, {"measurement": "viability, T/C", "setting": "[2]", "result": 20.2, "unit": "%"}, {"measurement": "viability, T/C", "setting": "[3]", "result": 26.7, "unit": "%"}, {"measurement": "viability, T/C", "setting": "[4]", "result": 25.1, "unit": "%"}, {"measurement": "viability, T/C", "setting": "[5]", "result": 29.1, "unit": "%"}, {"measurement": "viability, T/C", "setting": "[6]", "result": 2.24, "unit": "%"}, {"measurement": "viability, T/C", "setting": "[7]", "result": 22.8, "unit": "%"}, {"measurement": "viability, T/C", "setting": "[8]", "result": 21.6, "unit": "%"}, {"measurement": "viability, T/C", "setting": "[9]", "result": 25.9, "unit": "%"}, {"measurement": "viability, T/C", "setting": "[10]", "result": 23, "unit": "%"}, {"measurement": "viability, T/C", "setting": "[11]", "result": 28.9, "unit": "%"}, {"measurement": "viability, T/C", "setting": "[12]", "result": 1.52, "unit": "%"}, {"measurement": "viability, T/C", "setting": "[13]", "result": 17.8, "unit": "%"}, {"measurement": "viability, T/C", "setting": "[14]", "result": 20, "unit": "%"}, {"measurement": "viability, T/C", "setting": "[15]", "result": 19.3, "unit": "%"}, {"measurement": "viability, T/C", "setting": "[16]", "result": 25, "unit": "%"}, {"measurement": "viability, T/C", "setting": "[17]", "result": 24, "unit": "%"}, {"measurement": "viability, T/C", "setting": "[18]", "result": 1.82, "unit": "%"}, {"measurement": "viability, T/C", "setting": "[19]", "result": 14.9, "unit": "%"}, {"measurement": "viability, T/C", "setting": "[20]", "result": 18, "unit": "%"}, {"measurement": "viability, T/C", "setting": "[21]", "result": 14.6, "unit": "%"}, {"measurement": "viability, T/C", "setting": "[22]", "result": 20.5, "unit": "%"}, {"measurement": "viability, T/C", "setting": "[23]", "result": 20.2, "unit": "%"}, {"measurement": "viability, T/C", "setting": "[24]", "result": 1.74, "unit": "%"}, {"measurement": "viability, T/C", "setting": "[25]", "result": 13.2, "unit": "%"}, {"measurement": "viability, T/C", "setting": "[26]", "result": 15.6, "unit": "%"}, {"measurement": "viability, T/C", "setting": "[27]", "result": 14.9, "unit": "%"}, {"measurement": "viability, T/C", "setting": "[28]", "result": 15.1, "unit": "%"}, {"measurement": "viability, T/C", "setting": "[29]", "result": 18.4, "unit": "%"}, {"measurement": "viability, T/C", "setting": "[30]", "result": 1, "unit": "%"}, {"measurement": "viability, T/C", "setting": "[31]", "result": 12.7, "unit": "%"}, {"measurement": "viability, T/C", "setting": "[32]", "result": 10.6, "unit": "%"}, {"measurement": "viability, T/C", "setting": "[33]", "result": 11.6, "unit": "%"}, {"measurement": "viability, T/C", "setting": "[34]", "result": 17.2, "unit": "%"}, {"measurement": "viability, T/C", "setting": "[35]", "result": 12.3, "unit": "%"}, {"measurement": "viability, T/C", "setting": "[36]", "result": 0.79, "unit": "%"}]}
